Test results reported in PubChem BioAssay AID2831 (Southern Research Specialized Biocontainment Screening …, 2010).
Calls of active or inactive are those of the source.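 The calls were made as follows: active = inhibition over 29.93%, a cutoff 3 SD above the screen mean, later confirmed by dose response; inconclusive = over the cutoff but never tested in dose response; inactive = the rest.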

Columns and labels:
[1] = tested on: S. Typhimurium PhoP-regulated promoter-GFP reporter, fluorescence, 4 h; assay: decrease of PhoP-driven GFP reporter signal, S. Typhimurium, dose response, PhoP regulon inhibitor project, purified and synthesized compounds, set 2 (AID 2831)
[2] = as above; settings: S. Typhimurium PhoP-regulated promoter-GFP reporter, fluorescence, 4 h; at 150 µM (top of the series)

Row | IC50 [1] [µM] | Compound | inhibition [2]
1 | < 0.15 | O=C1c2ccccc2C2=Nc3ccccc3SC(c3ccccc3F)C12 (stereo unspecified) | –
2 | < 0.15 | O=C(Nc1cccnc1)c1cc(Br)c(Br)s1 | –
3 | – | Cc1ccc(CN2CCCN(C(=O)Nc3ccc(Cl)cc3)C2)cc1 | 17.3% (inactive)
4 | 76.6 | S=C(NCc1ccc(Cl)cc1)Nc1ccncc1 | –
5 | < 0.15 | O=C(O)c1cn(-c2ccc(F)cc2)c2cc(Cl)c(F)cc2c1=O | –
6 | – | Cc1cccc(NC(=S)NCc2ccc(Cl)cc2)c1 | 18.9% (inactive)
7 | 27.9 | CCn1cc(C(=O)O)c(=O)c2cc(F)c(N3CCN(C(=S)Nc4ccccc4C)CC3)cc21 | –
8 | < 0.15 | CCCCn1c(NS(=O)(=O)c2ccccc2)c(S(=O)(=O)c2ccc(C)cc2)c2nc3ccccc3nc21 | –
9 | 112 | Cc1ccc(Nc2cc(C)c3c(O)cccc3n2)cc1C | –
10 | 133 | O=C1C2=C(Nc3ccccc3SC2c2ccc(I)cc2)c2ccccc21 (stereo unspecified) | –
11 | 58.8 | S=C(NCc1ccc(Cl)cc1)Nc1cccc(Cl)c1 | –
12 | < 0.15 | CCCCn1c(NS(=O)(=O)c2ccc(C)cc2)c(S(=O)(=O)c2ccccc2)c2nc3ccccc3nc21 | –
13 | < 0.15 | O=S(=O)(Nc1c(S(=O)(=O)c2ccccc2)c2nc3ccccc3nc2n1C1CCCCC1)c1ccccc1 | –
14 | 141 | O=C1C2=C(Nc3ccccc3SC2c2ccccc2Cl)c2ccccc21 (stereo unspecified) | –
15 | – | O=C(Nc1ccc(Cl)cc1)N1CCCN(Cc2ccc(F)cc2)C1 | -86.3% (inactive)
16 | – | CCn1cc(C(=O)O)c(=O)c2cc(F)c(N3CCN(C(=S)Nc4ccc(Cl)cc4)CC3)cc21 | -15% (inactive)
17 | – | COc1ccc(NC(=S)NCc2ccc(Cl)cc2)cc1 | 1.77% (inactive)
18 | < 0.15 | N#C/C(=C\c1ccc[nH]1)C(=O)NC1CC1 | –
19 | – | Fc1ccccc1NC(=S)NCc1ccc(Cl)cc1 | -10.3% (inactive)
20 | 3.79 | CCn1cc(C(=O)O)c(=O)c2cc(F)c(N3CCN(C(=S)Nc4ccccc4C(F)(F)F)CC3)cc21 | –
21 | 76.8 | COc1cccc(C2Sc3ccccc3NC3=C2C(=O)c2ccccc23)c1 (stereo unspecified) | –
22 | – | CCn1cc(C(=O)O)c(=O)c2cc(F)c(N3CCN(C(=S)NC)CC3)cc21 | -22.9% (inactive)
23 | – | O=C1C2=C(Nc3ccccc3SC2c2ccsc2)c2ccccc21 (stereo unspecified) | 7.75% (inactive)
24 | 85.5 | COc1c(N2CCN(C(=S)NCc3ccccc3)C(C)C2)c(F)cc2c(=O)c(C(=O)O)cn(C3CC3)c12 (stereo unspecified) | –
25 | 69.1 | O=[N+]([O-])c1ccc(CNC2CCCc3ccccc32)cc1 (stereo unspecified) | –
26 | – | O=C(Nc1ccc(Br)cc1)N1CCCN(Cc2ccccc2F)C1 | -62.1% (inactive)

Row | IC50 [1] [µM] | Compound | inhibition [2]
27 | 106 | CCn1cc(C(=O)O)c(=O)c2cc(F)c(N3CCN(C(=S)NC(=O)c4ccccc4F)CC3)cc21 | –
28 | – | O=C(Nc1ccccc1)N1CCCN(Cc2ccccc2F)C1 | -140% (inactive)
29 | < 0.15 | CN(C)CCCN(C(=O)CCc1ccccc1)c1nc2ccc(Cl)cc2s1 | –
30 | – | COc1cccc(NC(=S)NCc2ccc(Cl)cc2)c1 | 2.44% (inactive)
31 | – | O=C(Nc1ccccc1Cl)N1CCCN(Cc2ccccc2F)C1 | -64.3% (inactive)
32 | – | S=C(NCc1ccc(Cl)cc1)Nc1cccnc1 | -84.8% (inactive)
33 | – | O=C1C2=C(Nc3ccccc3SC2c2ccccc2C(F)(F)F)c2ccccc21 (stereo unspecified) | -23.8% (inactive)
34 | 2.03 | CCOc1ccc(NC(=S)N2CCN(c3cc4c(cc3F)c(=O)c(C(=O)O)cn4CC)CC2)cc1 | –
35 | – | S=C(NCc1ccc(Cl)cc1)Nc1ccc(Br)cc1 | -3.88% (inactive)
36 | – | COc1ccccc1NC(=O)N1CCCN(Cc2ccccc2F)C1 | 13.8% (inactive)
37 | 88.3 | O=C1C2=C(Nc3ccccc3SC2c2ccccc2Br)c2ccccc21 (stereo unspecified) | –
38 | 42.6 | CCn1cc(C(=O)O)c(=O)c2cc(F)c(N3CCN(C(=S)NC(=O)c4ccccc4Cl)CC3)cc21 | –
39 | < 0.15 | O=c1c2ccccc2[nH]c2ccc(F)cc12 | –
40 | < 0.15 | CCCCCNC(=O)c1cn(CC)c2cc(N3CCN(C)CC3)c(F)cc2c1=O | –
41 | < 0.15 | COc1ccc(NC(=O)c2cc(Br)c(Br)s2)cn1 | –
42 | – | O=C1C2=C(Nc3ccccc3SC2c2ccc(C(F)(F)F)cc2)c2ccccc21 (stereo unspecified) | -14.5% (inactive)
43 | 46.5 | CCn1cc(C(=O)O)c(=O)c2cc(F)c(N3CCN(C(=S)Nc4ccccc4Cl)CC3)cc21 | –
44 | – | O=C(Nc1ccccc1)N1CCCN(Cc2ccc(F)cc2)C1 | -3.43% (inactive)
45 | – | CCn1cc(C(=O)O)c(=O)c2cc(F)c(N3CCN(C(=S)NCc4ccccc4)CC3)cc21 | -0.39% (inactive)
46 | – | Cc1ccc(NC(=S)NCc2ccc(Cl)cc2)cc1 | 26.1% (inactive)
47 | < 0.15 | C1=C(CCNc2ncnc3c2[nH]c2ccccc23)CCCC1 | –
48 | < 0.15 | COc1ccccc1Nc1nc(NCc2ccco2)c2ccccc2n1 | –
49 | 146 | S=C(NCc1ccccc1Cl)Nc1ccncc1 | –
50 | – | O=C(NCc1ccccc1)N1CCCN(Cc2ccccc2F)C1 | -78.3% (inactive)
51 | < 0.15 | CN1CCc2nc(SCC(=O)Nc3cccc(F)c3)c(C#N)c(-c3cccs3)c2C1 | –
